# Where a SMILES comes first, the peptide text is derived from it. [ ]: non-standard residue; d: D form. ξ: configuration not given here. Ile(3ξ) = CCC(C)[C@H](N)C(=O)O; Thr(3ξ) = CC(O)[C@H](N)C(=O)O
# Molecular target: Caspase-8 (Homo sapiens, UniProt Q14790)
# Experiment: Enzyme Inhibition Assay
# Protocol: The caspase enzymatic activity was determined by measuring the accumulation of a fluorogenic product. All assays were prepared in 96-well format. Recombinant caspase enzyme was first assayed to determine the optimal concentration for each experiment. Peptide inhibitors with known IC50 values were tested together with the compounds as a control for each caspase assay. […] Compounds were tested in duplicate and IC50 curves were calculated for all inhibitors assayed.
# Chain of Caspase-8 (Q14790 217-374 limits assumed): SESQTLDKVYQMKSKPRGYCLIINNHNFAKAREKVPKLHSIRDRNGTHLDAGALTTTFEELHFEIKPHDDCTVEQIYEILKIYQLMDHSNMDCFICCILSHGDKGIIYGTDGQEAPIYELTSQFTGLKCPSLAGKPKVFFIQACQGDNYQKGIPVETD
# Chain of Caspase-8 (Q14790 385-479 limits assumed): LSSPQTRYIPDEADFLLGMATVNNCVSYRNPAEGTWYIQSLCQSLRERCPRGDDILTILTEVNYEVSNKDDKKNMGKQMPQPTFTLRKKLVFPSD
smiles,measurement,value
CCC(C)[C@H](NC(C)=O)C(=O)N[C@@H](CCC(=O)O)C(=O)N[C@H](C(=O)N[C@H](C=O)CC(=O)O)C(C)O (stereo partly drawn) [(4S)-4-{[(1S)-1-{[(2S)-1-carboxy-3-oxopropan-2-yl]carbamoyl}-2-hydroxypropyl]carbamoyl}-4-[(2S)-2-acetamido-3-methylpentanamido]butanoic acid] (Ac-[Ile(3ξ)]E[Thr(3ξ)]D-aldehyde),IC50,4.2 nM
